From patent publication US8785499B2 (priority 2009, dated 2014)

Molecular target: baNadD (Bacillus anthracis, UniProt C3L5T6)
Test: biochemical
Assay type: biochemical

Sequence of baNadD (C3L5T6 whole entry, looked up): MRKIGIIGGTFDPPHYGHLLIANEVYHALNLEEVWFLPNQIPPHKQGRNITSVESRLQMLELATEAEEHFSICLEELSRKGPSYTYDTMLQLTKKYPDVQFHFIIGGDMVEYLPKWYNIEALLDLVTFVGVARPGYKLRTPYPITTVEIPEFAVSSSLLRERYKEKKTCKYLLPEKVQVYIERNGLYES

SMILES	[…]. anthracis [%]
O=[N+]([O-])c1cc(Cl)ccc1NCCCNS(=O)(=O)c1ccccc1 [compound 165]	0
O=C(O)c1cccc(-n2nc(O)ccc2=O)c1 [compound 166]	19
O=C(CSc1nc2ccccc2c(=O)[nH]1)NCc1ccco1 [compound 167]	0
O=C(O)CN1C(=O)CC(Cc2ccc(Cl)cc2)C1=O (stereo not shown) [compound 168]	0
O=C(O)CSc1nc2ccccc2n1CC(=O)O [compound 169]	0
COc1ccc(S(=O)(=O)Nc2ccc(CC#N)cc2)cc1C [compound 170]	0
O=C(NNC(=O)C1CC=CCC1C(=O)O)c1cccc([NH2+][O-])c1 (stereo not shown) [compound 171]	24
O=C(O)c1ccc(/C=N/NC(=O)c2cc3cc(Br)ccc3o2)cc1 [compound 172]	32
Nc1nc(SCC(=O)NCC2CCCO2)n[nH]1 (stereo not shown) [compound 173]	0
O=C(O)c1cccc(COc2ccc(CO)cc2Cl)c1 [compound 175]	0
O=C(O)CSc1nc(=O)cc(-c2ccccc2)[nH]1 [compound 176]	0
O=C(CSC(=O)c1ccccc1)Nc1ccc(Cl)cn1 [compound 177]	21
CS(=O)(=O)NCCOc1ccc(S(=O)(=O)NCc2ccccc2)cc1 [compound 179]	0
O=C(O)c1cccc(CSc2ncccn2)c1 [compound 180]	15
O=C(O)c1ccc(OCOc2ccc(C(=O)O)c(C(=O)O)c2)cc1C(=O)O [compound 181]	56
CC(=NNC(=O)COc1ccc(C)cc1)C(=O)O [compound 182]	14
Nc1nnc(-c2cc(-c3ccc(Cl)cc3)on2)o1 [compound 183]	7
Cc1ccccc1N1CC(C(=O)O)CC1=O (stereo not shown) [compound 184]	16
O=C(O)c1[nH]c2ccc(Cl)cc2c1-c1ccccc1 [compound 185]	40

SMILES	[…]. anthracis [%]
O=C(Nc1ccc([N+](=O)[O-])cn1)c1sc2ccccc2c1Cl [compound 186]	9
C=CCSc1nnc(-c2cc(Br)ccc2N)c(O)n1 [compound 187]	0
O=S(=O)(NCc1cccs1)c1ccc(Br)cc1 [compound 188]	0
O=C(CSc1n[nH]c(=O)[nH]c1=O)N/N=C\c1ccc(Br)cc1 [compound 189]	0
CN1CCN(C(=O)c2ccccc2C(=O)O)CC1 [compound 190]	0
N/N=C/c1c(Cl)cccc1Cl [compound 191]	5
COc1ccc(N(CC(=O)O)S(=O)(=O)c2ccc(C)cc2)cc1Cl [compound 192]	0
O=C(O)CCSCCc1ccncc1 [compound 193]	18
O=C1NC(=O)/C(=C\c2ccc(O)c(I)c2)N1 [compound 194]	62
O=C(NNC(=O)c1ccccc1C(=O)O)c1ccc(Cl)cc1 [compound 195]	0
COCCNS(=O)(=O)c1ccc2c(c1)CCN2C(=O)CCC(=O)O [compound 196]	52
O=C(CSc1nc2ccccc2[nH]1)Nc1nncs1 [compound 197]	34
N=C1NC(=O)C(Cc2ccccc2Cl)S1 (stereo not shown) [compound 198]	7
Cc1cc(S(=O)(=O)Nc2cccc(C(=O)O)c2)ccc1Cl [compound 199]	0
CC(=NNC(=O)CCC(=O)Nc1ccc(Br)cc1)c1ccc2ccccc2c1 [compound 200]	76
Cc1ccc(-c2nnc(SCC(=O)O)o2)cc1 [compound 201]	25
O=C(N/N=C/c1ccccc1Cl)c1cccnc1 [compound 202]	32
O=S(=O)(Nc1ccc(Br)c(Cl)c1)c1cccs1 [compound 203]	0
NS(=O)(=O)c1ccc(NC(=O)CSc2ncn(-c3ccccc3)n2)cc1 [compound 205]	40

Molecular target: ecNadD (Escherichia coli (strain K12), UniProt P0A752)
Test: biochemical
Assay type: biochemical

SMILES	[…]. coli [%]
O=[N+]([O-])c1cc(Cl)ccc1NCCCNS(=O)(=O)c1ccccc1 [compound 165]	4
O=C(O)c1cccc(-n2nc(O)ccc2=O)c1 [compound 166]	4
O=C(CSc1nc2ccccc2c(=O)[nH]1)NCc1ccco1 [compound 167]	4
O=C(O)CN1C(=O)CC(Cc2ccc(Cl)cc2)C1=O (stereo not shown) [compound 168]	3
O=C(O)CSc1nc2ccccc2n1CC(=O)O [compound 169]	3
COc1ccc(S(=O)(=O)Nc2ccc(CC#N)cc2)cc1C [compound 170]	3
O=C(NNC(=O)C1CC=CCC1C(=O)O)c1cccc([NH2+][O-])c1 (stereo not shown) [compound 171]	3
O=C(O)c1ccc(/C=N/NC(=O)c2cc3cc(Br)ccc3o2)cc1 [compound 172]	3
Nc1nc(SCC(=O)NCC2CCCO2)n[nH]1 (stereo not shown) [compound 173]	3
O=C(O)c1cccc(COc2ccc(CO)cc2Cl)c1 [compound 175]	3
O=C(O)CSc1nc(=O)cc(-c2ccccc2)[nH]1 [compound 176]	3
O=C(CSC(=O)c1ccccc1)Nc1ccc(Cl)cn1 [compound 177]	3
CS(=O)(=O)NCCOc1ccc(S(=O)(=O)NCc2ccccc2)cc1 [compound 179]	3
O=C(O)c1cccc(CSc2ncccn2)c1 [compound 180]	3
O=C(O)c1ccc(OCOc2ccc(C(=O)O)c(C(=O)O)c2)cc1C(=O)O [compound 181]	3
CC(=NNC(=O)COc1ccc(C)cc1)C(=O)O [compound 182]	3
Nc1nnc(-c2cc(-c3ccc(Cl)cc3)on2)o1 [compound 183]	3
Cc1ccccc1N1CC(C(=O)O)CC1=O (stereo not shown) [compound 184]	2
O=C(O)c1[nH]c2ccc(Cl)cc2c1-c1ccccc1 [compound 185]	2

SMILES	[…]. coli [%]
O=C(Nc1ccc([N+](=O)[O-])cn1)c1sc2ccccc2c1Cl [compound 186]	2
C=CCSc1nnc(-c2cc(Br)ccc2N)c(O)n1 [compound 187]	2
O=S(=O)(NCc1cccs1)c1ccc(Br)cc1 [compound 188]	1
O=C(CSc1n[nH]c(=O)[nH]c1=O)N/N=C\c1ccc(Br)cc1 [compound 189]	1
CN1CCN(C(=O)c2ccccc2C(=O)O)CC1 [compound 190]	1
N/N=C/c1c(Cl)cccc1Cl [compound 191]	1
COc1ccc(N(CC(=O)O)S(=O)(=O)c2ccc(C)cc2)cc1Cl [compound 192]	1
O=C(O)CCSCCc1ccncc1 [compound 193]	1
O=C1NC(=O)/C(=C\c2ccc(O)c(I)c2)N1 [compound 194]	1
O=C(NNC(=O)c1ccccc1C(=O)O)c1ccc(Cl)cc1 [compound 195]	1
COCCNS(=O)(=O)c1ccc2c(c1)CCN2C(=O)CCC(=O)O [compound 196]	1
O=C(CSc1nc2ccccc2[nH]1)Nc1nncs1 [compound 197]	0
N=C1NC(=O)C(Cc2ccccc2Cl)S1 (stereo not shown) [compound 198]	0
Cc1cc(S(=O)(=O)Nc2cccc(C(=O)O)c2)ccc1Cl [compound 199]	0
CC(=NNC(=O)CCC(=O)Nc1ccc(Br)cc1)c1ccc2ccccc2c1 [compound 200]	0
Cc1ccc(-c2nnc(SCC(=O)O)o2)cc1 [compound 201]	0
O=C(N/N=C/c1ccccc1Cl)c1cccnc1 [compound 202]	0
O=S(=O)(Nc1ccc(Br)c(Cl)c1)c1cccs1 [compound 203]	0
NS(=O)(=O)c1ccc(NC(=O)CSc2ncn(-c3ccccc3)n2)cc1 [compound 205]	0
